Measurements taken from patent US20250026725A1, “HYDRATE CRYSTAL OF 5-CHLORO-4-(3-CHLORO-4- METHYLPHENYL)-1H-IMIDAZOLE-2-CARBONITRILE” (ISHIHARA SANGYO KAISHA, LTD., priority 2021, published 2025).
Each block holds one compound with its values, some of them ahead of it.

Tests used:
[1] = Karl Fischer moisture content measurement (volumetric titration method); assay type: physicochemical; conditions: atmosphere of 25° C., as obtained
Method: The moisture content rates of the hydrate crystals obtained in Production Examples 1 and 2, and the anhydrous crystals used as a raw material in Production Example 1 were measured with a Karl Fischer moisture meter (CA-310, manufactured by Nittoseiko Analytech Co., Ltd.). The test was conducted in conformance with the description in The Japanese Pharmacopoeia, 18th Edition, “2.48 Water Determination (Karl Fischer Method)”, Volumetric titration. The measurement was performed in an atmosphere of 25° C., with the conditions set to a forced delay time of 2 minutes after sample administration, a minimum amount to be titrated of 2 μL, and an end point voltage of 140 mV. More specifically, it was as follows. First, into a measuring flask, methanol for moisture measurement (Aquamicron Dehydrated Solvent GEX, manufactured by Mitsubishi Chemical Corporation) was loaded, and 30 mg of water was added thereto to titrate the mixture with a Karl Fischer reagent (Aquamicron SS-Z, manufactured by Mitsubishi Chemical Corporation). After titration, a titer (mg/mL) of the reagent was determined from the amount titrated. Next, about 0.1 g of a measurement sample was precisely weighed and added into the measuring flask to titrate the mixture with a Karl Fischer reagent. The moisture content (w/w %) in the sample was calculated from the amount titrated and the previously determined titer.

[2] = Moisture absorption test; assay type: physicochemical; conditions: 60° C./80% RH, paper bag
Method: An anhydrous crystal sample was placed in a container (glass weighing bottle or paper bag) in such a manner that it was in direct contact with the damp. […] In addition, a sample for the hydrate crystal (Production Example 1) was also preserved at 60° C./80% RH, and the change in moisture content was observed through the change in weight or Karl Fischer moisture measurement.

[3] = Test of triboelectrification properties; assay type: physicochemical; conditions: for Decrease of potential retention rate: at 20 minutes later
Method: First, the sample was loaded into a levelled stainless steel petri dish having φ50 mm×a height of 15 mm, and then it was statically eliminated with a static eliminator (STABLO AP, manufactured by SHIMADZU CORPORATION). The surface potential of the sample was measured with a surface electrometer (SV-77A, manufactured by NIPPON STATIC CO., LTD.) that had previously been zero-point adjusted, to confirm that it was statically eliminated (within −1 to +1 kV). Next, the sample surface of the petri dish loaded with the sample was scraped back and forth 20 times with a stainless steel metal plate for 10 seconds to charge the sample surface. After that, the petri dish loaded with the charged sample was placed on a metal plate (30 cm×30 cm) connected with a ground wire. The surface potential of the sample was measured over time for 20 minutes with the above surface electrometer. The triboelectrification properties were evaluated from the initial surface potential. In addition, the retention rate was calculated from the surface potential after 20 minutes and the initial surface potential to evaluate charge attenuation properties. Note that the test was conducted in an electrostatic measurement chamber (Tabai ESPEC CORP.) set to 25° C. and 50% RH, and the surface potential measurement was conducted at a distance of 1 cm from the sample surface.

[4] = Drying test; assay type: physicochemical; conditions: 25° C., dried (silica gel), weighing bottle
Method: The hydrate crystal of Production Example 1 was stored at 25° C. under a dried condition (in the presence of silica gel) for a period shown in Table 2. The Karl Fischer moisture content after storage was measured, and the change in moisture content was observed.

[5] = tested on: Trichophyton rubrum (ATCCMYA4607); assay: Antifungal activity test, minimum inhibitory concentration (MIC100); assay type: cell-based; conditions: Table 21, same method as Test Example 12, read-out: Minimal fungicidal concentration (MFC100)
Method: Trichophyton rubrum was cultured on a Sabouraud medium at 32° C. for 168 hours to form spores. Mycelia were peeled from a medium surface and collected into a tube, physiological saline solution (OTSUKA NORMAL SALINE; containing the equivalent of 9 g of sodium chloride in 1000 mL) was added thereto, and the entire mixture was mixed and dispersed with a disposable loop (Type 1 (1 μL)) to collect a spore suspension containing mycelia. The spore suspension containing mycelia was filtered through a cell strainer (+40 μm). Spores were collected from a filtrate by centrifugation (3500 rpm, 5 minutes), and washed twice with physiological saline to prepare a spore suspension (1×10^6 cells/mL). 10 μL of the spore suspension was inoculated into the Sabouraud medium to which the test compound dissolved in DMSO was added so as to have a predetermined concentration. Trichophyton rubrum was cultured at 32° C. for 72 hours, and then the presence or absence of the development of colonies was examined to determine a minimum inhibitory concentration (MIC100).
A minimum inhibitory concentration (MIC100) for Trichophyton rubrum (ATCCMYA4607) was determined in the same method as in Test Example 12 except that the hydrate crystal (Production Example 2) was used as the compound under test.

Karl Fischer moisture content ([1]; listed as hydrate crystal of Production Example 1): 6.6 wt %
Moisture content ([2]; 0 days): 0.1%
Weight change ([2]; 4 days): 6.4%
Weight change ([2]; 7 days): 6.4%
Weight change ([2]; 14 days): 6.5%
Moisture content ([2]; 20 days): 6.7%
Weight change ([2]; 20 days): 6.5%
Weight change ([2]; 29 days): 6.5%
Weight change ([2]; 40 days): 6.5%
Moisture content ([2]; 61 days): 6.6%
Weight change ([2]; 61 days): 6.5%
Electrification voltage ([3]; 0 minutes after charging, 25° C. and 50% RH): −3.00 kv
Electrification voltage ([3]; 20 minutes after charging, 25° C. and 50% RH): −2.79 kv
Decrease of potential retention rate ([3]; 25° C. and 50% RH, listed as hydrate crystal of Production Example 1): 7%
Retention rate ([3]; surface potential after 20 minutes vs initial, 25° C. and 50% RH): 93.0%
Karl Fischer moisture content ([4]; 0 days): 6.5%
Karl Fischer moisture content ([4]; 14 days): 6.7%
Karl Fischer moisture content ([4]; 29 days): 6.7%
Karl Fischer moisture content ([4]; 38 days): 6.7%
Karl Fischer moisture content ([4]; 53 days): 6.7%
Compound: Cc1ccc(-c2nc(C#N)[nH]c2Cl)cc1Cl [Hydrate crystal (Production Example 1), 5-chloro-4-(3-chloro-4-methylphenyl)-1H-imidazole-2-carbonitrile]

Karl Fischer moisture content ([1]; listed as hydrate crystal of Production Example 2): 6.7 wt %
Electrification voltage ([3]; 0 minutes after charging; 25° C. and 50% RH; listed as Hydrate crystal Production Example 2)): −2.30 kv
Electrification voltage ([3]; 20 minutes after charging; 25° C. and 50% RH; listed as Hydrate crystal Production Example 2)): −1.98 kv
Decrease of potential retention rate ([3]; 25° C. and 50% RH, listed as hydrate crystal of Production Example 2): 14%
Retention rate ([3]; surface potential after 20 minutes vs initial; 25° C. and 50% RH; listed as Hydrate crystal Production Example 2)): 86.1%
Compound: Cc1ccc(-c2nc(C#N)[nH]c2Cl)cc1Cl [Hydrate crystal (Production Example 2), 5-chloro-4-(3-chloro-4-methylphenyl)-1H-imidazole-2-carbonitrile]
MFC [5]: 5 µg/mL
